Laboratory results: US10654884B2 (Vitae Pharmaceuticals, Inc., priority 2014, dated 2020)
Read-outs that look alike come from different tables or passages of the source.

Tests used:
[1] = molecular target: T1, CD73 on U138 neuroglioma cells (Homo sapiens, UniProt P21589); assay: Inhibition of Ecto-5′-Nucleotidase Activity in U138 Neuroglioma Cells (Assay 2); format: cell-based
T1 construct: U138 neuroglioma cells, which express CD73 on their surface; endogenous in cells; host or cells: U138 neuroglioma cells (ATCC)
T1 sequence (P21589 27-549): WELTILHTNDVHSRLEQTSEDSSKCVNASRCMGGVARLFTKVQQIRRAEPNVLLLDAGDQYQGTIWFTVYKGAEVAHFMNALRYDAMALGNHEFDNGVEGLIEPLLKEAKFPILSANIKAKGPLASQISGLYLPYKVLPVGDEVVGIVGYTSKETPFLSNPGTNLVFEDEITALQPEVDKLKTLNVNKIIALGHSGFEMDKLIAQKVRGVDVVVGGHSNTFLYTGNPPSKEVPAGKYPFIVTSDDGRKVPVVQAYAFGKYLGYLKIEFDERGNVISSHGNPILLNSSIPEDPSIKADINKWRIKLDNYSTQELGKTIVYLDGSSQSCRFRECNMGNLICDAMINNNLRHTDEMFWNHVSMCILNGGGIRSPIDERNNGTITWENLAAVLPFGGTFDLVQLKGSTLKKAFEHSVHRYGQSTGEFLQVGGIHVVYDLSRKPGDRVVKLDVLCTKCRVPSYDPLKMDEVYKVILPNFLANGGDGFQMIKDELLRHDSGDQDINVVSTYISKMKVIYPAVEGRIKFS
Method: Inhibition of Ecto-5′-Nucleotidase Activity in U138 Neuroglioma Cells (Assay 2)
U138 cells were obtained from the American Type Culture Collection (ATCC) (Manassas, Va.), and cultured in complete growth media (DMEM, 10% FBS, 1 mM L-glutamine, 100 U penicillin-streptomycin) at 37° C., 5% CO2. The day before the experiment, cells were seeded at 2,500 cells/well in 100 μL of complete media into 96-well plates. Cells were washed twice with 200 μL of assay buffer (20 mM HEPES, pH 7.4, 137 mM NaCl, 5.4 mM KCl, 1.3 mM CaCl2, 4.2 mM NaHCO3, 1 mg/mL glucose) to remove residual inorganic phosphate. After washing, assays contained serial dilutions of test compounds and 50 μM of cytidine-5′-monophosphate (CMP) in a total volume of 200 μL of assay buffer, with a final DMSO concentration ≤0.1%. After 2 hr at 37° C., 5% CO2, 100 μL of supernatant was removed from the cells and the concentration of inorganic phosphate was determined using malachite green reagent. IC50 values for test compounds were determined from nonlinear regression fits of the data using XLfit (IDBS).

human CD73 = molecular target: T2, human CD73 (Homo sapiens, UniProt P21589); assay: Inhibition of 5′-Nucleotidase Activity of CD73 (Assay 1); format: biochemical; settings: human CD73 4 ng/ml, 50 μM CMP, 20 min at RT, malachite green readout; read-out: Assay 1: IC50, inhibition of 5′-nucleotidase activity of CD73
T2 construct: purchased R&D Systems 5795-EN-010
T2 sequence (P21589 27-549): T1 sequence (P21589 27-549)
Method: Inhibition of 5′-Nucleotidase Activity of CD73 (Assay 1)
Compounds of the present invention were tested for the ability to inhibit CD73 enzyme activity. Tested compounds were dissolved in DMSO (50× final concentration), and 3.2 μL of the solutions added to 96-well polystyrene plates. To these wells were added, 100 μL of human CD73 (R&D Systems Cat. No. 5795-EN-010) and 57 μL of cytidine-5′-monophosphate (CMP) solutions in assay buffer (25 mM Tris-HCl, pH 7.4, 0.005% Brij-35) were added to achieve final concentrations in the assay of 4 ng/ml CD73 and 50 μM of CMP. The assay mixture was incubated for 20 min at RT. The reaction was stopped by addition of 40 μL of malachite green reagent which was prepared by mixing together 10 ml 2M H2SO4, 2.5 ml of 15% ammonium molybdate and 0.2 ml of 11% Tween-20. The mixture was agitated vigorously for 10 min at RT, and absorbance at 620 nm was determined on a microplate spectrophotometer. […] The IC50 values were derived using a non-linear 4 parameter logistic model (XLFit software, IDBS) and correspond to the inflection points on dose-response curves.

[2] = 50 μM CMP, 2 hr at 37° C., malachite green readout, read-out: Assay 2: IC50, inhibition of ecto-5′-nucleotidase activity in U138 neuroglioma cells

Row | IC50 [1, 2] [µM] | IC50 (human CD73) [µM] | SMILES | IC50 ([1]; IC50 value for APCP (standard), standard in each experiment, typical range) [µM]
1 | < 0.1 | < 0.1 | Nc1nc(Cl)nc2c1ncn2[C@@H]1O[C@H](CO[C@@H](C(=O)OCc2ccccc2)P(=O)(O)O)[C@@H](O)[C@H]1O (single isomer, unassigned) [Example 16] | –
2 | > 1 | 0.1 to 1 | CCOC(=O)[C@@H](OC[C@H]1O[C@@H](n2cnc3c(N)nc(-c4ncco4)nc32)[C@H](O)[C@@H]1O)P(=O)(O)O (single isomer, unassigned) [Example 49a] | –
3 | 0.1 to 1 | < 0.1 | O=C(O)C(OC[C@H]1O[C@@H](n2cnc3c(Cl)nc(Cl)nc32)[C@H](O)[C@@H]1O)P(=O)(O)O (stereo partly drawn) [Example 62, 2-(((2R,3S,4R,5R)-5-(2,6-dichloro-9H-purin-9-yl)-3,4-dihydroxytetrahydrofuran-2-yl)methoxy)-2-phosphonoacetic acid] | –
4 | < 0.1 | < 0.1 | Nc1nc(Cl)nc2c1ncn2[C@@H]1O[C@H](COC(Cc2ccccc2)(C(=O)O)C(=O)O)[C@@H](O)[C@H]1O [Example 7, 2-(((2R,3S,4R,5R)-5-(6-amino-2-chloro-9H-purin-9-yl)-3,4-dihydroxytetrahydrofuran-2-yl)methoxy)-2-benzylmalonic acid] | –
5 | 0.1 to 1 | 0.1 to 1 | CCOC(=O)[C@@H](OC[C@H]1O[C@@H](n2cnc3c(OCC)nc(Cl)nc32)[C@H](O)[C@@H]1O)P(=O)(O)O (single isomer, unassigned) [Example 27a] | –
6 | < 0.1 | < 0.1 | CCOC(=O)[C@H](OC[C@H]1O[C@@H](n2cnc3c(N)nc(C#N)nc32)[C@H](O)[C@@H]1O)P(=O)(O)O (single isomer, unassigned) [Example 45] | –
7 | < 0.1 | < 0.1 | CNc1nc(Cl)nc2c1ncn2[C@@H]1O[C@H](COC(C(F)(F)F)P(=O)(O)O)[C@@H](O)[C@H]1O (single isomer, unassigned) [Example 100a] | –
8 | < 0.1 | < 0.1 | Nc1nc(Cl)nc2c1ncn2[C@@H]1O[C@H](COC(CC2CC2)(C(=O)O)C(=O)O)[C@@H](O)[C@H]1O [Example 98, 2-(((2R,3S,4R,5R)-5-(6-amino-2-chloro-9H-purin-9-yl)-3,4-dihydroxytetrahydrofuran-2-yl)methoxy)-2-(cyclopropylmethyl)malonic acid] | –
9 | < 0.1 | < 0.1 | CCNc1nc(Cl)nc2c1ncn2[C@@H]1O[C@H](CO[C@@](C)(C(=O)OCC)P(=O)(O)O)[C@@H](O)[C@H]1O [Example 29, ((R)-2-(((2R,3S,4R,5R)-5-(2-chloro-6-(ethylamino)-9H-purin-9-yl)-3,4-dihydroxytetrahydrofuran-2-yl)methoxy)-1-ethoxy-1-oxopropan-2-yl)phosphonic Acid] | –
10 | 0.1 to 1 | 0.1 to 1 | CCOC(=O)[C@@H](OC[C@H]1O[C@@H](n2cnc3c(N)nc(Cl)nc32)[C@H](O)[C@@H]1O)P(=O)(O)O (single isomer, unassigned) [1, isomer 2] | –
11 | 0.1 to 1 | 0.1 to 1 | CCNc1nc(Cl)nc2c1ncn2[C@@H]1O[C@H](CO[C@](C)(C(=O)OCC)P(=O)(O)O)[C@@H](O)[C@H]1O [Example 29a, ((S)-2-(((2R,3S,4R,5R)-5-(2-chloro-6-(ethylamino)-9H-purin-9-yl)-3,4-dihydroxytetrahydrofuran-2-yl)methoxy)-1-ethoxy-1-oxopropan-2-yl)phosphonic Acid] | –
12 | 0.1 to 1 | < 0.1 | Nc1nc(Cl)nc2c1ncn2[C@@H]1O[C@H](COC(C(=O)O)C(=O)O)[C@@H](O)[C@H]1O [Example 3, 2-(((2R,3S,4R,5R)-5-(6-amino-2-chloro-9H-purin-9-yl)-3,4-dihydroxytetrahydrofuran-2-yl)methoxy)malonic acid] | –
13 | < 0.1 | < 0.1 | Nc1nc(Cl)nc2c1ncn2[C@@H]1O[C@H](COC(COCc2ccccc2)(C(=O)O)C(=O)O)[C@@H](O)[C@H]1O [Example 6, 2-(((2R,3S,4R,5R)-5-(6-amino-2-chloro-9H-purin-9-yl)-3,4-dihydroxytetrahydrofuran-2-yl)methoxy)-2-((benzyloxy)methyl)malonic acid] | –
14 | 0.1 to 1 | < 0.1 | Cc1nnc(C(OC[C@H]2O[C@@H](n3cnc4c(N)nc(Cl)nc43)[C@H](O)[C@@H]2O)P(=O)(O)O)o1 (single isomer, unassigned) [Example 21] | –
15 | 0.1 to 1 | 0.1 to 1 | CCOC(=O)[C@H](OC[C@H]1O[C@@H](n2cnc3c(N)nc(CC(C)C)nc32)[C@H](O)[C@@H]1O)P(=O)(O)O (single isomer, unassigned) [Example 46] | –
16 | 0.1 to 1 | 0.1 to 1 | O=C(O)C(OC[C@H]1O[C@@H](n2cnc3c(Nc4ccccc4)ncnc32)[C@H](O)[C@@H]1O)P(=O)(O)O (stereo partly drawn) [Example 65, 2-(((2R,3S,4R,5R)-3,4-dihydroxy-5-(6-(phenylamino)-9H-purin-9-yl)tetrahydrofuran-2-yl)methoxy)-2-phosphonoacetic acid] | –
17 | 0.1 to 1 | < 0.1 | CCOC(=O)[C@H](OC[C@@H]1O[C@H](n2cnc3c(N)nc(C)nc32)[C@@H](O)[C@H]1O)P(=O)(O)O (single isomer, unassigned) [Example 37] | –
18 | > 1 | 0.1 to 1 | CCOC(=O)[C@H](OC[C@H]1C[C@@H](n2cnc3cccc(Cl)c3c2=O)[C@H](O)[C@@H]1O)P(=O)(O)O (single isomer, unassigned) [Example 70] | –
19 | 0.1 to 1 | 0.1 to 1 | CC(C)COC(=O)[C@@H](OC[C@H]1O[C@@H](n2cnc3c(N)nc(Cl)nc32)[C@H](O)[C@@H]1O)P(=O)(O)O (single isomer, unassigned) [Example 14a] | –
20 | 0.1 to 1 | < 0.1 | CCN(CC)C(=O)[C@H](OC[C@H]1O[C@@H](n2cnc3c(N)nc(Cl)nc32)[C@H](O)[C@@H]1O)P(=O)(O)O (single isomer, unassigned) [Example 82a] | –
21 | 0.1 to 1 | < 0.1 | Nc1nc(I)nc2c1ncn2[C@@H]1O[C@H](CO[C@H](C(=O)O)P(=O)(O)O)[C@@H](O)[C@H]1O [Example 59, (S)-2-(((2R,3S,4R,5R)-5-(6-amino-2-iodo-9H-purin-9-yl)-3,4-dihydroxytetrahydrofuran-2-yl)methoxy)-2-phosphonoacetic Acid] | –
22 | 0.1 to 1 | < 0.1 | CCOC(=O)C(OC[C@H]1O[C@@H](n2cnc3ccc(Cl)nc32)[C@H](O)[C@@H]1O)P(=O)(O)O (single isomer, unassigned) [Example 87] | –
23 | – | – | Nc1ncnc2c1ncn2[C@@H]1O[C@H](COP(=O)(O)CP(=O)(O)O)[C@@H](O)[C@H]1O [APCP, adenosine 5′-(α,β-methylene)diphosphate, reference compound] | 0.012 to 0.025
24 | – | > 1 | CC(C)Nc1ncnc2c1ncn2[C@@H]1O[C@H](COC(C(=O)O)P(=O)(O)O)[C@@H](O)[C@H]1O (stereo partly drawn) [Example 64, 2-(((2R,3S,4R,5R)-3,4-dihydroxy-5-(6-(isopropylamino)-9H-purin-9-yl)tetrahydrofuran-2-yl)methoxy)-2-phosphonoacetic acid] | –

Row | SMILES | IC50 [1, 2] [µM] | IC50 (human CD73) [µM] | IC50 ([1]; IC50 value for APCP (standard), standard in each experiment, typical range) [µM]
25 | O=C(O)C(OC[C@H]1O[C@@H](n2cnc3c(N[C@@H]4CCOC4)nc(Cl)nc32)[C@H](O)[C@@H]1O)C(=O)O [Example 68, 2-(((2R,3S,4R,5R)-5-(2-chloro-6-(((R)-tetrahydrofuran-3-yl)amino)-9H-purin-9-yl)-3,4-dihydroxytetrahydrofuran-2-yl)methoxy)malonic acid] | 0.1 to 1 | < 0.1 | –
